The subject of this assay is HCT116 tumor cells (colon tumor cells). The assay is described as follows: HCT116 colon tumor model, anti-alpha5beta1 + chemotherapy. The assay is classed as in vivo, HRLN female nu/nu mice. Particulars: chemotherapeutic agent by itself. The protocol:
HRLN female nu/nu mice were injected with 5×10^6 HCT116 tumor cells (colon tumor cells) subcutaneously in their flanks. Tumors were allowed to grow until they reach an average size of 80-120 cubic mm before treatment with therapies. Tumor bearing mice were then divided into 4 groups:
Tumor volume measurement was carried out twice a week using a standard caliper measurement method. The hamster anti-mouse integrin alpha5 mab, known as 10E7, was generated at Genentech. Body weight was measured 5 times over 2 days then twice per week (biwk) to the end of the study. The endpoint of the experiment was a tumor volume of 1.5 gms or 60 days, whichever came first. Some responders were followed longer. When the endpoint was reached, the animals were euthanized. The dosing volume was 10 mL/kg (0.200 ml/20 g mouse), which volume was adjusted for body weight. 10E7 was administered 30 minutes before irinotecan administration. For animals showing complete regression (CR), tissues at the site of tumor implantation were collected at endpoint and preserved in formulin followed by 70% EtOH for later study. All samples to be frozen were placed in a cryomold, wrapped in foil & snap frozen on liquid nitrogen.

Turning to `CCc1c2c(nc3ccc(OC(=O)N4CCC(N5CCCCC5)CC4)cc13)-c1cc3c(c(=O)n1C2)COC(=O)[C@]3(O)CC` [irinotecan], the vascular damage result is given as “did not cause significant vascular damage”.

For the origin of these results see patent publication US8350010B2, “Anti-alpha5/beta1 antibody” (Genentech, Inc., priority 2006, dated 2013).
